Measured values from US10138207B2, “Benzomorphan analogs and the use thereof” (priority 2012, dated 2018).
Like-named read-outs stand apart in the source and are kept apart here.

What was measured:
μ-opioid receptor [1] = target: T1, μ-opioid receptor (Homo sapiens, UniProt P35372); assay: μ-opioid receptor [35S]GTPγS functional assay, U-2 OS cells; format: biochemical; set-up: expressed in transfected cells; host or cells: U-2 OS; details: U-2 OS cells; for EC50: read-out: GTPγS μ EC50; for Emax: relative to DAMGO, read-out: GTPγS μ Emax
T1 sequence (P35372 whole entry, species assumed): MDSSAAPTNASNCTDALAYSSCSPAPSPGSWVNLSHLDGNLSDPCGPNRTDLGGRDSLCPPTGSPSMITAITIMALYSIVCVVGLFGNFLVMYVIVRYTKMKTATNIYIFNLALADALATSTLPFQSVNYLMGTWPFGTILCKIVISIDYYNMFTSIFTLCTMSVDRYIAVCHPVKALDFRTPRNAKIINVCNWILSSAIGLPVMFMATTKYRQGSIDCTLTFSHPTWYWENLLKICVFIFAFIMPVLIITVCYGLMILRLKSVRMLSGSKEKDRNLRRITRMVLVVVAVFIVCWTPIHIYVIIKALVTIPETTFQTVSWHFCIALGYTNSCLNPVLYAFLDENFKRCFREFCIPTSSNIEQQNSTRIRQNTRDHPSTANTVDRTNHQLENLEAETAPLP

μ-opioid receptor [2] = target: T1, μ-opioid receptor; assay: μ-opioid receptor [35S]GTPγS functional assay, HEK-293 or CHO cells; details: for Emax: read-out: GTPγS μ Emax
κ opioid receptor [3] = target: T2, κ opioid receptor (Homo sapiens, UniProt P41145); assay: κ-opioid receptor [35S]GTPγS functional assay, HEK-293 or CHO cells; format: biochemical; set-up: expressed in transfected cells; host or cells: U-2 OS (in-house membranes); details: for Emax: relative to U69,593
T2 sequence (P41145 whole entry): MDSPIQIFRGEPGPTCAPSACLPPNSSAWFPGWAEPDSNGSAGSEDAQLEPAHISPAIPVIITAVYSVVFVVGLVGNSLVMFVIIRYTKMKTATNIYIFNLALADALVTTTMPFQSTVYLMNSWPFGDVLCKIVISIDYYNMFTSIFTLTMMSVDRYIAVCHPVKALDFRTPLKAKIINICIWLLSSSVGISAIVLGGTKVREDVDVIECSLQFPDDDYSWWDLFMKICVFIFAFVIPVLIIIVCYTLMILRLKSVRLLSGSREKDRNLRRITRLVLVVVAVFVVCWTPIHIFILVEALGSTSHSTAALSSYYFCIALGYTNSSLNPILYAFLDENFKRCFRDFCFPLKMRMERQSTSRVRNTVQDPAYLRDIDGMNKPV
Protocol: Membranes from recombinant HEK-293 cells, CHO or U-2 OS cells expressing the recombinant human κ opioid receptor (κ) were prepared by lysing cells in ice cold hypotonic buffer (2.5 mM MgCl2, 50 mM HEPES, pH 7.4) (10 mL/10 cm dish) followed by homogenization with a tissue grinder/Teflon pestle. Membranes from a cell line naturally expressing kappa opioid receptors can also be used. Membranes were collected by centrifugation at 30,000×g for 15 min at 4° C. and pellets were resuspended in hypotonic buffer to a final concentration of 1-3 mg/mL. Protein concentrations were determined using the BioRad protein assay reagent with bovine serum albumen as standard. Aliquots of κ receptor membranes were stored at −80° C.
Plates were incubated for 30 min at a temperature of about 25° C. with shaking.

κ opioid receptor [4] = target: T2, κ opioid receptor; assay: biochemical; format: binding; set-up: expressed in transfected cells; host or cells: HEK 293 (in-house membrane prep); details: HEK-293 or CHO cells
[5] = HEK-293 or CHO cells, read-out: GTPγS κ EC50
[6] = HEK-293 or CHO cells, bound in μM, read-out: GTPγS κ EC50

Row | Structure (SMILES) | EC50 (μ-opioid receptor [1]) | Emax (μ-opioid receptor [1]) | EC50 (μ-opioid receptor [2]) | Emax (μ-opioid receptor [2]) | EC50 (κ opioid receptor [3]; [5]) | Emax (κ opioid receptor [3]; HEK-293 or CHO cells) | Ki (κ opioid receptor [4]) | EC50 (κ opioid receptor [3]) | EC50 (κ opioid receptor [3]; [6])
1 | CN1CC[C@]2(C)c3cc(O)ccc3CC1[C@@H]2N1Cc2ccccc2NC1=O [Compound 91] | 378 ± 61.9 nM | 71.3 ± 3.53% | 409 ± 19.5 nM | 89.7 ± 5.9% | 2.81 ± 0.129 µM | 34.7 ± 5.93% | 174 ± 25.7 nM |  | 
2 | CN(C(=O)Nc1ccc(C#N)cc1)C1C2Cc3ccc(O)cc3[C@@]1(C)CCN2CCc1ccccc1 (stereo in doubt) [Compound 87, 3-(4-cyanophenyl)-1-((2R,6R,11S)-8-hydroxy-6-methyl-3-phenethyl-1,2,3,4,5,6-hexahydro-2,6-methanobenzo[d]azocin-11-yl)-1-methylurea] | 2.08 ± 0.12 nM | 99.3 ± 2.03% | 5.29 ± 1.1 nM | 96.3 ± 2.96% | 0.024 ± 0.00194 µM | 10.8 ± 1.49% | 1.21 ± 0.24 nM |  | 
3 | CN1CC[C@]2(C)c3cc(O)ccc3CC1[C@H]2COc1ccc(C(N)=O)cc1 [Compound 44, 4-(((6S,11S)-8-hydroxy-3,6-dimethyl-1,2,3,4,5,6-hexahydro-2,6-methanobenzo[d]azocin-11-yl)methoxy)benzamide] |  |  | 718 ± 249 nM | 65 ± 2.52% |  | 17.7 ± 1.2% | 166 ± 62.3 nM | 0.394 ± 0.0884 µM | 
4 | CN[C@@H]1[C@H]2Cc3ccc(OC)cc3[C@@]1(C)CCN2CC1CC1 [Compound 56, (2R,6R,11S)-3-(cyclopropylmethyl)-8-methoxy-N,6-dimethyl-1,2,3,4,5,6-hexahydro-2,6-methanobenzo[d]azocin-11-amine] |  |  | 3810 ± 726 nM | 36.7 ± 7.22% |  | 25.7 ± 1.67% | 170 ± 51.9 nM | 2.58 ± 0.721 µM | 
5 | CC(C)CC(NC(=O)N(C)C1[C@H]2Cc3ccc(O)cc3[C@]1(C)CCN2C)C(=O)O (stereo in doubt) [Compound 76, 2-(3-((2R,6S,11S)-8-hydroxy-3,6-dimethyl-1,2,3,4,5,6-hexahydro-2,6-methanobenzo[d]azocin-11-yl)-3-methylureido)-4-methylpentanoic acid] |  |  | 811 ± 53 nM | 79.3 ± 3.48% |  | -0.33 ± 0.67% | 107 ± 1.33 nM |  | > 20 µM
6 | COc1ccc2c(c1)[C@@]1(C)CCN(CCC(C(=O)N(C)C)(c3ccccc3)c3ccccc3)C(C2)[C@H]1O [Compound 17, 4-((6R,11S)-11-hydroxy-8-methoxy-6-methyl-1,2,5,6-tetrahydro-2,6-methanobenzo[d]azocin-3(4H)-yl)-N,N-dimethyl-2,2-diphenylbutanamide] |  |  |  |  |  |  | 89.9 ± 14.7 nM |  | > 20 µM
7 | CN1CC[C@]2(C)c3cc(O)ccc3CC1C2N(C)C(=O)/C=C/c1ccoc1 (stereo in doubt) [Compound 24, (E)-3-(furan-3-yl)-N-((2R,6R,11S)-8-hydroxy-3,6-dimethyl-1,2,3,4,5,6-hexahydro-2,6-methanobenzo[d]azocin-11-yl)-N-methylacrylamide] |  |  |  |  | 0.178 ± 0.0251 µM | 30.7 ± 2.6% | 1.17 ± 0.09 nM |  | 
8 | CN1CC[C@]2(C)c3cc(O)ccc3CC1C2N(C)CCc1ccccc1 (stereo in doubt) [Compound 29, (2R,6R,11S)-3,6-dimethyl-11-(methyl(phenethyl)amino)-1,2,3,4,5,6-hexahydro-2,6-methanobenzo[d]azocin-8-ol] | 0.044 nM | 100 ± 1.45% |  |  | 0.233 ± 0.0749 µM | 28.2 ± 4.66% | 30.1 ± 11.8 nM |  | 
9 | CN(C)C(=O)C(CCN1CC[C@]2(C)c3cc(O)ccc3CC1[C@H]2O)(c1ccccc1)c1ccccc1 [Compound 22, 4-((6R,11S)-8,11-dihydroxy-6-methyl-1,2,5,6-tetrahydro-2,6-methanobenzo[d]azocin-3(4H)-yl)-N,N-dimethyl-2,2-diphenylbutanamide] | 300 ± 45.8 nM | 71 ± 3.46% |  |  |  |  | 25.7 ± 8.74 nM |  | > 20 µM
10 | COc1ccc2c(c1)[C@@]1(C)CCN(C)C(C2)[C@@H]1c1cccc(C(N)=O)c1 [Compound 54, 3-((6S,11R)-8-methoxy-3,6-dimethyl-1,2,3,4,5,6-hexahydro-2,6-methanobenzo[d]azocin-11-yl)benzamide] |  |  | > 20000 nM |  |  |  | 259 ± 33.6 nM |  | > 20 µM
11 | CN(C(=O)Nc1ccc(C#N)cc1)[C@@H]1C2Cc3ccc(O)cc3[C@@]1(C)CCN2CC1CC1 [Compound 81, 3-(4-cyanophenyl)-1-((6R,11S)-3-(cyclopropylmethyl)-8-hydroxy-6-methyl-1,2,3,4,5,6-hexahydro-2,6-methanobenzo[d]azocin-11-yl)-1-methylurea] |  |  | 1230 ± 173 nM | 31.2 ± 2.87% |  |  | 36.6 ± 4.94 nM |  | > 20 µM
12 | CCN(C(=O)/C=C/c1ccoc1)C1C2Cc3ccc(OC)cc3[C@@]1(C)CCN2C (stereo in doubt) [Compound 25, (E)-N-ethyl-3-(furan-3-yl)-N-((2R,6R,11S)-8-methoxy-3,6-dimethyl-1,2,3,4,5,6-hexahydro-2,6-methanobenzo[d]azocin-11-yl)acrylamide] | 49.8 ± 12.1 nM | 102 ± 1.67% |  |  |  | -1% | 147 ± 18.4 nM |  | > 20 µM
13 | COc1ccc2c(c1)[C@@]1(C)CCN(C)C(C2)[C@]1(O)c1cccc(C(N)=O)c1 [Compound 63, 3-((6R,11S)-11-hydroxy-8-methoxy-3,6-dimethyl-1,2,3,4,5,6-hexahydro-2,6-methanobenzo[d]azocin-11-yl)benzamide] |  |  | > 20000 nM |  |  |  | 340 ± 90.9 nM |  | > 20 µM
14 | CN1CC[C@]2(C)c3cc(O)ccc3CC1C2N(C)C(=O)Cc1ccc(S(C)(=O)=O)cc1 (stereo in doubt) [Compound 27, N-((2R,6R,11S)-8-hydroxy-3,6-dimethyl-1,2,3,4,5,6-hexahydro-2,6-methanobenzo[d]azocin-11-yl)-N-methyl-2-(4-(methylsulfonyl)phenyl)acetamide] | 1.51 ± 0.24 nM | 103 ± 2.33% |  |  |  |  | 35.2 ± 9.38 nM |  | > 20 µM
15 | CN1CC[C@]2(C)c3cc(O)ccc3CC1[C@@H]2COc1ncc([C@H](O)CO)cc1Cl [Compound 43, (1S)-1-(5-chloro-6-(((6S,11R)-8-hydroxy-3,6-dimethyl-1,2,3,4,5,6-hexahydro-2,6-methanobenzo[d]azocin-11-yl)methoxy)pyridin-3-yl)ethane-1,2-diol] |  |  | 3390 ± 63.4 nM | 24.7 ± 3.28% |  |  | 516 ± 126 nM | > 20 µM | 
16 | COc1ccc2c(c1)[C@@]1(C)CCN(C)C(C2)[C@@H]1N(C)C(=O)/C=C/c1ccoc1 [Compound 16, (E)-3-(furan-3-yl)-N-((6R,11R)-8-methoxy-3,6-dimethyl-1,2,3,4,5,6-hexahydro-2,6-methanobenzo[d]azocin-11-yl)-N-methylacrylamide] |  |  |  |  | 1.05 ± 0.262 µM | 15 ± 1.53% | 186 ± 34 nM |  | 
17 | COc1ccc2c(c1)C1(C)CCN(CCC(C(=O)N(C)C)(c3ccccc3)c3ccccc3)C(C2)C1(O)O (stereo not shown) [Compound 7, 4-(11,11-dihydroxy-8-methoxy-6-methyl-1,2,5,6-tetrahydro-2,6-methanobenzo[d]azocin-3(4H)-yl)-N,N-dimethyl-2,2-diphenylbutanamide] |  |  |  |  |  | -0.33 ± 0.67% | 279 ± 39.8 nM |  | > 20 µM
18 | CN1CC[C@]2(C)c3cc(O)ccc3CC1C2N(C)C(=O)Nc1ccc(C#N)cc1 (stereo in doubt) [Compound 78, 3-(4-cyanophenyl)-1-((2R,6R,11S)-8-hydroxy-3,6-dimethyl-1,2,3,4,5,6-hexahydro-2,6-methanobenzo[d]azocin-11-yl)-1-methylurea] | 6.09 ± 0.45 nM | 109 ± 3.28% |  |  |  |  | 17.9 ± 4.33 nM |  | > 20 µM
